From ChEMBL document CHEMBL1144673, “Discovery of novel alpha-glucosidase inhibitors based on the virtual screening with the homology-modeled protein structure” (Bioorg Med Chem, 2008) come the findings set out here.

The target in the assay is Alpha-glucosidase MAL12 (Saccharomyces cerevisiae S288c) (UniProt P53341). Briefly: Inhibition of bakers yeast alpha-glucosidase at 50 uM.
Chain of Alpha-glucosidase MAL12 (Saccharomyces cerevisiae S288c) (P53341 whole entry): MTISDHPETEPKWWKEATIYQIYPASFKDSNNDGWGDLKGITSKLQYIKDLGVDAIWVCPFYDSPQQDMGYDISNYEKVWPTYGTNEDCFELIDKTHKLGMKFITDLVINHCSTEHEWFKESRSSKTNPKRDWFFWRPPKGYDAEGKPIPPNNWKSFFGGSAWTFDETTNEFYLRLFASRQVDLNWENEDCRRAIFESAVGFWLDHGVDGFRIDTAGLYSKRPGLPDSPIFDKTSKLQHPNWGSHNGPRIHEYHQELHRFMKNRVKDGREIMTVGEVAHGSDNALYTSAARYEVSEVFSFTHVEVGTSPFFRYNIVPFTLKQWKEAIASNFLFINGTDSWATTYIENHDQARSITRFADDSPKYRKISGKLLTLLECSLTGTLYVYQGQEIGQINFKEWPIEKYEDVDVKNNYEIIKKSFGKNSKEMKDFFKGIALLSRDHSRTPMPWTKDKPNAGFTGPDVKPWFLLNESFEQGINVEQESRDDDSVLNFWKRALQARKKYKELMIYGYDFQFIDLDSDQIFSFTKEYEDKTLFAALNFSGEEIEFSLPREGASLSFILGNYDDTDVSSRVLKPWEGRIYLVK

In the case of `O=C(CSc1nc2ccccc2c(=O)n1-c1ccccc1)NCc1ccccc1`, the inhibition was 50.9%.
Molecule `Oc1ccc(-c2nnc(Nc3cccc(O)c3)c3ccccc23)cc1` had an inhibition of 61.4%.
The result for `COc1ccc(N2C(=O)NC(=O)/C(=C\c3cn(CC(=O)Nc4ccccc4)c4ccccc34)C2=O)cc1` reads 50.6%.
The result for `O=C(Cn1c(=O)n(CC(=O)NCc2ccccc2)c2cc(Cl)ccc21)NCc1ccccc1` reads 62.4%; that for `O=C(Nc1ccccc1O)c1ccc(Oc2cccc(C(=O)Nc3ccccc3O)c2)cc1`, 70.1%.
The result for `N#CC1=C(N)n2c(s/c(=C\c3ccccc3F)c2=O)=C(C(N)=O)C1c1ccccc1F` (stereo not drawn) reads 62.2%; that for `O=C1NC(=O)N(c2ccccc2F)C(=O)/C1=C\c1ccccc1OCc1ccc(C(=O)O)cc1`, 54%.
In turn, `O=C(CSc1nnc(COc2cccc3cccnc23)n1-c1ccccc1)c1ccc(Cl)cc1` showed an inhibition of 66.5%.
Then `Cc1ccc(-n2c(SCC(=O)Nc3ccc(F)c(F)c3)nnc2-c2ccccc2)cc1`, with 63.1%.
Molecule `Cn1cc(/C=C/C(=O)NC(=O)c2ccccc2O)c2ccccc21` registered an inhibition of 71.4%.
Then `N#CC1=C(N)n2c(s/c(=C\c3ccc(O)cc3)c2=O)=C(C(N)=O)C1c1ccc(O)cc1` (stereo not drawn), with 59.2%.
The result for `O=C(Nc1nccs1)c1c(O)c2ccccc2n(Cc2ccccc2)c1=O` reads 52.3%; that for `Cc1ccc(/N=c2\cc(-c3ccc4c(c3)OCO4)oc3ccc(O)cc23)cc1C`, 58%.
